Earlier results, collected in PMC9923514 (Journal of chemical information and modeling, 2022).

What was measured:
[1] = target: ZIKV NS5 RdRp (Zika virus, UniProt A0A024B7W1); conditions: for IC50: read-out: NS5 RdRp IC50
[2] = target: ZIKV NS2B-NS3pro (Zika virus, UniProt A0A024B7W1); conditions: read-out: NS2B-NS3pro IC50; allosteric inhibitor
Chain of ZIKV NS2B-NS3pro (A0A024B7W1 1503-1680): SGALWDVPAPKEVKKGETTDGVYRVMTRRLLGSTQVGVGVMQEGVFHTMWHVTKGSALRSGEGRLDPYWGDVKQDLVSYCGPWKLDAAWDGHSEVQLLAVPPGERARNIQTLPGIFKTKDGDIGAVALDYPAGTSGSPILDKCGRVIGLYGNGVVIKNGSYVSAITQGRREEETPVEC
Chain of ZIKV NS2B-NS3pro (A0A024B7W1 1373-1502): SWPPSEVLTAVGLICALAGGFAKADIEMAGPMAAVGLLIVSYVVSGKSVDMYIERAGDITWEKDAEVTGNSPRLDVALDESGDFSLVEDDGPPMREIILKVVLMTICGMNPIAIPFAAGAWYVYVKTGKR

Chain of ZIKV NS5 RdRp (A0A024B7W1 2521-3423): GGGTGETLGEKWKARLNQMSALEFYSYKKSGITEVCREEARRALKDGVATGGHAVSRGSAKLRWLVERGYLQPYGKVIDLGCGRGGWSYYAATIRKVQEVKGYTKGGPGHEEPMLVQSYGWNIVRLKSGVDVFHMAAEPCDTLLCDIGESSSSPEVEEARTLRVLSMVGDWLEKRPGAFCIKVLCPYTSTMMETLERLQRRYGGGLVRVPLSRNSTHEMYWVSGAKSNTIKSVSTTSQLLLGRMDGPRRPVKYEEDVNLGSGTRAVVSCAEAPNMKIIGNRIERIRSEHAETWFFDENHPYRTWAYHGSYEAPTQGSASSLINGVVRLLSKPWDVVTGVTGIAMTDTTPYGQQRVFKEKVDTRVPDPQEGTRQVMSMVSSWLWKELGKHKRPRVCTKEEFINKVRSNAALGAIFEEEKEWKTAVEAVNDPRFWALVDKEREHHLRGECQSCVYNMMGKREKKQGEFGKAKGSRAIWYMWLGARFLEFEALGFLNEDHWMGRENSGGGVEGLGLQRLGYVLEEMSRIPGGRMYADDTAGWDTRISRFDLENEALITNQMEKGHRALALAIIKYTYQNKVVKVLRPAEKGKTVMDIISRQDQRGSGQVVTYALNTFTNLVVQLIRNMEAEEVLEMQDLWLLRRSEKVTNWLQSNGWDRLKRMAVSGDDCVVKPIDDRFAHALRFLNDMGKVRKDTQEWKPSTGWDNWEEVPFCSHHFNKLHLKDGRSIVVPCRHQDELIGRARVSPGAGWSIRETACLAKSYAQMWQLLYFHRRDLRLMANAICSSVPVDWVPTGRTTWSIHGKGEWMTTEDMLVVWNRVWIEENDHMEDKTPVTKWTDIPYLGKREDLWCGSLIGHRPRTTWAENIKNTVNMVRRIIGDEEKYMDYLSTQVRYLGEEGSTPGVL

Compound	IC50 [1] [nM]	also measured
CCCCCOCc1c(Nc2ccc(S(N)(=O)=O)cc2)nc(N2CCOCC2)nc1C(=O)NCCOc1ccccc1 [2-morpholino-5-((pentyloxy)methyl)-N-(2-phenoxyethyl)-6-((4-sulfamoylphenyl)amino)pyrimidine-4-carboxamide]	2400	
Nc1cc(N)c(N=Nc2ccc(S(=O)(=O)Nc3nccs3)cc2)cc1N=Nc1ccc(S(=O)(=O)Nc2nccs2)cc1 [NSC86314]		IC50 [2]: 1120 ± 110 nM
O=C(NC(=S)Nc1ccc(N2CCN(C(=O)c3cccs3)CC2)cc1)c1sc2ccccc2c1Cl [TBP, 3-chloro-N-[({4-[4-(2-thienylcarbonyl)-1-piperazinyl]phenyl}amino)carbonothioyl]-1-benzothiophene-2-carboxamide]	94	
O[C@H]1[C@H]2c3cc4c(cc3CN3CCC(=C[C@@H]1O)[C@H]23)OCO4 [lycorine]		NS5 RdRp inhibition ([1]; at 50 μM): 60%
